Measurements reported in US11014929B2, “Pyrazolopyrimidine compounds and uses thereof” (Incyte Corporation, priority 2016, dated 2021).
pKi: −log10 of the molar value.

Molecular target: HPK1 (Homo sapiens (Human), UniProt Q92918)
Test: HPK1 Kinase Binding Assay
Conditions: LanthaScreen tracer 222 binding, active HPK1, one hour incubation at 25° C.
Protocol: A stock solution of 1 mM test compound was prepared in DMSO. The compound plate was prepared by 3-fold and 11-point serial dilutions. 0.1 μL of the compound in DMSO was transferred from the compound plate to the white 384 well polystyrene plates. The assay buffer contained 50 mM HEPES, pH 7.5, 0.01% Tween-20, 5 mM MgCl2, 0.01% BSA, and 5 mM DTT. 5 μl of 4 nM active HPK1 (SignalChem M23-11G) prepared in the buffer was added to the plate. The enzyme concentration given was based on the given stock concentration reported by the vender. 5 μl of 18 nM tracer 222 (ThermoFisher PV6121) and 4 nM LanthaScreen Eu-Anti GST antibody (ThermoFisher PV5595) were added. After one hour incubation at 25° C., the plates were read on a PHERAstar FS plate reader (BMG Labtech). Ki values were determined.

HPK1, sequence (Q92918 1-346): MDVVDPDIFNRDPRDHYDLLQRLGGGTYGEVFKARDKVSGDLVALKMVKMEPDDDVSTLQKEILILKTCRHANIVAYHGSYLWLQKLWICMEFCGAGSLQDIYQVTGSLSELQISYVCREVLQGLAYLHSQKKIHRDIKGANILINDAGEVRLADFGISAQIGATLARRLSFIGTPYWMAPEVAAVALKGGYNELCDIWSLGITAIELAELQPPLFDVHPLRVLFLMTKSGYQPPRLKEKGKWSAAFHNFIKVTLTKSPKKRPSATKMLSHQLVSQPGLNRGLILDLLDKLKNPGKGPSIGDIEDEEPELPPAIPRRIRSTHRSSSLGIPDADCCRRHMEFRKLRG

Row | SMILES | pKi
1 | CNC(C)c1cc(F)c(-c2ncc3[nH]nc(-c4cnn(C)c4)c3n2)c(F)c1 (stereo not shown) [Example 85, 1-(3,5-Difluoro-4-(3-(1-methyl-1H-pyrazol-4-yl)-1H-pyrazolo[4,3-d]pyrimidin-5-yl)phenyl)-N-methylethanamine] | ≥ 7.00
2 | CNCc1cc(F)c(-c2ncc3[nH]nc(-c4ccc(N5CCN(C(C)=O)CC5)nc4)c3n2)c(C(F)(F)F)c1 [Example 77, 1-(4-(5-(5-(2-Fluoro-4-((methylamino)methyl)-6-(trifluoromethyl)phenyl)-1H-pyrazolo[4,3-d]pyrimidin-3-yl)pyridin-2-yl)piperazin-1-yl)ethanone] | ≥ 7.00
3 | Cc1cc(C2CCCN2)cc(F)c1-c1ncc2[nH]nc(-c3ccc(N4CCN(C)CC4)cc3)c2n1 (stereo not shown) [Example 80, 5-(2-Fluoro-6-methyl-4-(pyrrolidin-2-yl)phenyl)-3-(4-(4-methylpiperazin-1-yl)phenyl)-1H-pyrazolo[4,3-d]pyrimidine] | ≥ 7.00
4 | COc1cccc(F)c1-c1ncc2[nH]nc(-c3ccncc3)c2n1 [Example 15, 5-(2-Fluoro-6-methoxyphenyl)-3-(pyridin-4-yl)-1H-pyrazolo[4,3-d]pyrimidine] | ≥ 7.00
5 | COc1cccc(F)c1-c1ncc2[nH]nc(-c3ccnc(N4CCNCC4)c3)c2n1 [Example 50, 5-(2-Fluoro-6-methoxyphenyl)-3-(2-(piperazin-1-yl)pyridin-4-yl)-1H-pyrazolo[4,3-d]pyrimidine] | ≥ 7.00
6 | CNC1CCCc2c1cc(F)c(-c1ncc3[nH]nc(-c4ccc(N5CCOCC5)nc4)c3n1)c2F (stereo not shown) [Example 116, 5,7-Difluoro-N-methyl-6-(3-(6-morpholinopyridin-3-yl)-1H-pyrazolo[4,3-d]pyrimidin-5-yl)-1,2,3,4-tetrahydronaphthalen-1-amine] | ≥ 7.00
7 | CNCc1cc(F)c(-c2ncc3[nH]nc(-c4cnn(C)c4)c3n2)c(F)c1 [Example 84, 1-(3,5-Difluoro-4-(3-(1-methyl-1H-pyrazol-4-yl)-1H-pyrazolo[4,3-d]pyrimidin-5-yl)phenyl)-N-methylmethanamine] | ≥ 7.00
8 | COc1cccc(F)c1-c1ncc2[nH]nc(-c3ccc(N4CCN(C)CC4)cc3)c2n1 [Example 11, 5-(2-Fluoro-6-methoxyphenyl)-3-(4-(4-methylpiperazin-1-yl)phenyl)-1H-pyrazolo[4,3-d]pyrimidine] | ≥ 7.00
9 | COc1ccc(-c2n[nH]c3cnc(-c4c(F)cccc4OC)nc23)cc1 [Example 35, 5-(2-Fluoro-6-methoxyphenyl)-3-(4-methoxyphenyl)-1H-pyrazolo[4,3-d]pyrimidine] | ≥ 7.00
10 | COc1cccc(F)c1-c1ncc2[nH]nc(-c3ccc(C(C)(C)C#N)cc3)c2n1 [Example 42, 2-(4-(5-(2-Fluoro-6-methoxyphenyl)-1H-pyrazolo[4,3-d]pyrimidin-3-yl)phenyl)-2-methylpropanenitrile] | ≥ 7.00
11 | COc1cccc(F)c1-c1ncc2[nH]nc(-c3cccc(N4CCNCC4)c3)c2n1 [Example 27, 5-(2-Fluoro-6-methoxyphenyl)-3-(3-(piperazin-1-yl)phenyl)-1H-pyrazolo[4,3-d]pyrimidine] | ≥ 7.00
12 | COc1ccc(F)c(F)c1-c1ncc2[nH]nc(-c3ccc(N4CCN(C)CC4)cc3)c2n1 [Example 45, 5-(2,3-Difluoro-6-methoxyphenyl)-3-(4-(4-methylpiperazin-1-yl)phenyl)-1H-pyrazolo[4,3-d]pyrimidine] | ≥ 7.00
13 | COc1cccc(F)c1-c1ncc2[nH]nc(-c3cnn(-c4ccccc4)c3)c2n1 [Example 48, 5-(2-Fluoro-6-methoxyphenyl)-3-(1-phenyl-1H-pyrazol-4-yl)-1H-pyrazolo[4,3-d]pyrimidine] | ≥ 7.00
14 | CN1CCN(c2ccc(-c3n[nH]c4cnc(-c5ccc6c(c5)C(=O)NC6)nc34)cc2)CC1 [Example 7, 6-(3-(4-(4-Methylpiperazin-1-yl)phenyl)-1H-pyrazolo[4,3-d]pyrimidin-5-yl)isoindolin-1-one] | ≥ 7.00
15 | CNCc1cc(F)c(-c2ncc3[nH]nc(-c4ccc(OC)cc4)c3n2)c(F)c1 [Example 63, 1-(3,5-Difluoro-4-(3-(4-methoxyphenyl)-1H-pyrazolo[4,3-d]pyrimidin-5-yl)phenyl)-N-methylmethanamine] | ≥ 7.00

Further lines, results first:

Row | pKi | SMILES
16 | ≥ 7.00 | CNCc1cc(F)c(-c2ncc3[nH]nc(-c4ccc(N5CCN(S(C)(=O)=O)CC5)nc4)c3n2)c(F)c1 [Example 74, 1-(3,5-Difluoro-4-(3-(6-(4-(methylsulfonyl)piperazin-1-yl)pyridin-3-yl)-1H-pyrazolo[4,3-d]pyrimidin-5-yl)phenyl)-N-methylmethanamine]
17 | ≥ 7.00 | COc1cccc(F)c1-c1ncc2[nH]nc(-c3ccccc3)c2n1 [Example 12, 5-(2-Fluoro-6-methoxyphenyl)-3-phenyl-1H-pyrazolo[4,3-d]pyrimidine]
18 | ≥ 7.00 | CNCc1cc(F)c(-c2ncc3[nH]nc(-c4cnc(N5CCOCC5)c(C#N)c4)c3n2)c(F)c1 [Example 68, 5-(5-(2,6-Difluoro-4-((methylamino)methyl)phenyl)-1H-pyrazolo[4,3-d]pyrimidin-3-yl)-2-morpholinonicotinonitrile]
19 | 6.30 to 7.00 | COc1cccc(F)c1-c1ncc2[nH]nc(-c3cncnc3)c2n1 [Example 16, 5-(2-Fluoro-6-methoxyphenyl)-3-(pyrimidin-5-yl)-1H-pyrazolo[4,3-d]pyrimidine]
20 | 6.30 to 7.00 | COc1cccc(F)c1-c1ncc2[nH]nc(-c3ccccc3F)c2n1 [Example 13, 5-(2-Fluoro-6-methoxyphenyl)-3-(2-fluorophenyl)-1H-pyrazolo[4,3-d]pyrimidine]
21 | ≥ 7.00 | CN1CCN(c2cc(-c3n[nH]c4cnc(-c5c(F)cc6c(c5F)CNCC6)nc34)ccn2)CC1 [Example 90, 6,8-Difluoro-7-(3-(2-(4-methylpiperazin-1-yl)pyridin-4-yl)-1H-pyrazolo[4,3-d]pyrimidin-5-yl)-1,2,3,4-tetrahydroisoquinoline]
22 | 6.30 to 7.00 | COc1cccc(F)c1-c1ncc2[nH]nc(-c3ccc(C(=O)N(C)C)cc3)c2n1 [Example 22, 4-(5-(2-Fluoro-6-methoxyphenyl)-1H-pyrazolo[4,3-d]pyrimidin-3-yl)-N,N-dimethylbenzamide]
23 | 6.30 to 7.00 | COc1cccc(F)c1-c1ncc2[nH]nc(-c3ccc(C(F)(F)F)cc3)c2n1 [Example 18, 5-(2-Fluoro-6-methoxyphenyl)-3-(4-(trifluoromethyl)phenyl)-1H-pyrazolo[4,3-d]pyrimidine]
24 | ≥ 7.00 | Cc1cc2c(c(F)c1-c1ncc3[nH]nc(-c4ccc(N5CCN(C)CC5)nc4)c3n1)CNCC2 [Example 112, 8-Fluoro-6-methyl-7-(3-(6-(4-methylpiperazin-1-yl)pyridin-3-yl)-1H-pyrazolo[4,3-d]pyrimidin-5-yl)-1,2,3,4-tetrahydroisoquinoline]
25 | ≥ 7.00 | Fc1cc2c(c(F)c1-c1ncc3[nH]nc(-c4ccc(N5CCOCC5)nc4)c3n1)CNCC2 [Example 98, 4-(5-(5-(6,8-Difluoro-1,2,3,4-tetrahydroisoquinolin-7-yl)-1H-pyrazolo[4,3-d]pyrimidin-3-yl)pyridin-2-yl)morpholine]
26 | ≥ 7.00 | Cc1cc(C2CCCCN2)cc(F)c1-c1ncc2[nH]nc(-c3ccc(N4CCN(C)CC4)cc3)c2n1 (stereo not shown) [Example 81, 5-(2-Fluoro-6-methyl-4-(piperidin-2-yl)phenyl)-3-(4-(4-methylpiperazin-1-yl)phenyl)-1H-pyrazolo[4,3-d]pyrimidine]
27 | ≥ 7.00 | CN1CCN(c2ccc(-c3n[nH]c4cnc(-c5cccnc5)nc34)cc2)CC1 [Example 5, 3-(4-(4-Methylpiperazin-1-yl)phenyl)-5-(pyridin-3-yl)-1H-pyrazolo[4,3-d]pyrimidine]
28 | ≥ 7.00 | CNCc1cc(F)c(-c2ncc3[nH]nc(-c4ccc(N5CCC(C)(O)CC5)nc4)c3n2)c(F)c1 [Example 122, 1-(5-(5-(2,6-Difluoro-4-((methylamino)methyl)phenyl)-1H-pyrazolo[4,3-d]pyrimidin-3-yl)pyridin-2-yl)-4-methylpiperidin-4-ol]
29 | 6.30 to 7.00 | COc1cccc(F)c1-c1ncc2[nH]nc(-c3cccc(N4CCCC4)c3)c2n1 [Example 28, 5-(2-fluoro-6-methoxyphenyl)-3-(3-(pyrrolidin-1-yl)phenyl)-1H-pyrazolo[4,3-d]pyrimidine]
30 | ≥ 7.00 | Cc1cccc(F)c1-c1ncc2[nH]nc(-c3ccc(N4CCCC(O)C4)cc3)c2n1 (stereo not shown) [Example 57, 1-(4-(5-(2-Fluoro-6-methylphenyl)-1H-pyrazolo[4,3-d]pyrimidin-3-yl)phenyl)piperidin-3-ol]
31 | ≥ 7.00 | Cc1c2c(cc(F)c1-c1ncc3[nH]nc(-c4ccc(N5CCN(C)CC5)cc4)c3n1)CCNC2 [Example 111, 6-Fluoro-8-methyl-7-(3-(4-(4-methylpiperazin-1-yl)phenyl)-1H-pyrazolo[4,3-d]pyrimidin-5-yl)-1,2,3,4-tetrahydroisoquinoline]
32 | ≥ 7.00 | CNC(=O)c1cncc(-c2ncc3[nH]nc(-c4ccc(N5CCN(C)CC5)cc4)c3n2)c1 [Example 9, N-Methyl-5-(3-(4-(4-methylpiperazin-1-yl)phenyl)-1H-pyrazolo[4,3-d]pyrimidin-5-yl)nicotinamide]
33 | ≥ 7.00 | Cc1c2c(cc(F)c1-c1ncc3[nH]nc(-c4ccc(N5CCN(C)CC5)nc4)c3n1)CCNC2 [Example 110, 6-Fluoro-8-methyl-7-(3-(6-(4-methylpiperazin-1-yl)pyridin-3-yl)-1H-pyrazolo[4,3-d]pyrimidin-5-yl)-1,2,3,4-tetrahydroisoquinoline]
34 | ≥ 7.00 | Fc1cc2c(c(F)c1-c1ncc3[nH]nc(-c4ccc(OC(F)F)nc4)c3n1)CNCC2 [Example 97, 7-(3-(6-(Difluoromethoxy)pyridin-3-yl)-1H-pyrazolo[4,3-d]pyrimidin-5-yl)-6,8-difluoro-1,2,3,4-tetrahydroisoquinoline]
